Patent US20210254272A1, “TEXTILES HAVING ANTIMICROBIAL PROPERTIES” (Livinguard AG, priority 2015, published 2021)

Assay: Leaching test: 100 g fabric soaked in 10 liters stagnant distilled water, 3 days (72 hours)
Assay type: physicochemical
Description: The test procedure for leaching was as follows: 100 g (grams) of fabric as well as control fabrics were soaked in 10 liters of stagnant distilled water in a closed wide mouth jar. After 3 days (72 hours), the water samples were tested for leached substances as per standard analytical methods.
The test procedure for leaching was as follows: 100 g (grams) of fabric as well as control fabrics were soaked in 10 liters of stagnant distilled water in a closed wide mouth jar. After 3 days (72 hours), the water samples were tested for leached substances as per standard analytical methods. A weight of 100 g fabric was chosen because in the preferred embodiment of the water filter as described further below, each filter comprises a strip of fabric with 210 g/m^2, 3 meters long and 0.16 meters wide, which corresponds to 100 g of fabric.

With polyglucosamine [chitosan] the “Leaching of active ingredients (in ppm)” value (0.2% each in mixture (o.w.f), exhaust 80° C., 60 min, curing 180° C., 2 min, unwashed) was 9 ppm, the “Leaching of active ingredients (in ppm)” value (0.5% each in mixture (o.w.f), exhaust 80° C., 60 min, curing 180° C., 2 min, unwashed) was 12 ppm and the “Leaching of active ingredients (in ppm)” value (1.0% each in mixture (o.w.f), exhaust 80° C., 60 min, curing 180° C., 2 min, unwashed) was 16 ppm. For the same substance, the “Leaching of active ingredients (in ppm)” value (exhaust 60° C., solution dosage 1% o.w.f, process time 60 min) was 21 ppm, the “Leaching of active ingredients (in ppm)” value (exhaust 60° C., solution dosage 1% o.w.f, process time 90 min) was 13 ppm and the “Leaching of active ingredients (in ppm)” value (exhaust 60° C., solution dosage 1% o.w.f, process time 120 min) was 14 ppm. For the same substance, the “Leaching of active ingredients (in ppm)” value (exhaust 60° C., solution dosage 1% o.w.f, process time 180 min) was 12 ppm, the “Leaching of active ingredients (in ppm)” value (exhaust 60° C., solution dosage 1% o.w.f, process time 240 min) was 13 ppm and the “Leaching of active ingredients (in ppm)” value (exhaust 80° C., 1% o.w.f, 60 min, curing 170° C., curing dwell time 0.5 min) was 28 ppm. For the same substance, the “Leaching of active ingredients (in ppm)” value (exhaust 80° C., 1% o.w.f, 60 min, curing 170° C., curing dwell time 1.0 min) was 26 ppm, the “Leaching of active ingredients (in ppm)” value (exhaust 80° C., 1% o.w.f, 60 min, curing 170° C., curing dwell time 1.5 min) was 20 ppm and the “Leaching of active ingredients (in ppm)” value (exhaust 80° C., 1% o.w.f, 60 min, curing 170° C., curing dwell time 2.0 min) was 13 ppm. The “Leaching of active ingredients (in ppm)” value (exhaust 80° C., 1% o.w.f, 60 min, curing 170° C., curing dwell time 2.5 min) was 18 ppm, the “Leaching of active ingredients (in ppm)” value (exhaust 80° C., 1% o.w.f, 60 min, curing 170° C., curing dwell time 3.0 min) was 18 ppm and the “Leaching of active ingredients (in ppm)” value (exhaust 80° C., 1% o.w.f, 60 min, curing 180° C., curing dwell time 0.5 min) was 21 ppm. The “Leaching of active ingredients (in ppm)” value (exhaust 80° C., 1% o.w.f, 60 min, curing 180° C., curing dwell time 1.0 min) was 13 ppm, the “Leaching of active ingredients (in ppm)” value (exhaust 80° C., 1% o.w.f, 60 min, curing 180° C., curing dwell time 1.5 min) was 14 ppm and the “Leaching of active ingredients (in ppm)” value (exhaust 80° C., 1% o.w.f, 60 min, curing 180° C., curing dwell time 2.0 min) was 3 ppm. The “Leaching of active ingredients (in ppm)” value (exhaust 80° C., 1% o.w.f, 60 min, curing 180° C., curing dwell time 2.5 min) was 12 ppm, the “Leaching of active ingredients (in ppm)” value (exhaust 80° C., 1% o.w.f, 60 min, curing 180° C., curing dwell time 3.0 min) was 12 ppm and the “Leaching of active ingredients (in ppm)” value (exhaust 80° C., 1% o.w.f, 60 min, curing dwell time at 190° C. (title): 0.5 min) was 20 ppm. The “Leaching of active ingredients (in ppm)” value (exhaust 80° C., 1% o.w.f, 60 min, curing dwell time at 190° C. (title): 1.0 min) was 13 ppm, the “Leaching of active ingredients (in ppm)” value (exhaust 80° C., 1% o.w.f, 60 min, curing dwell time at 190° C. (title): 1.5 min) was 12 ppm and the “Leaching of active ingredients (in ppm)” value (exhaust 80° C., 1% o.w.f, 60 min, curing dwell time at 190° C. (title): 2.0 min) was 11 ppm. For the same substance, the “Leaching of active ingredients (in ppm)” value (exhaust 80° C., 1% o.w.f, 60 min, curing dwell time at 190° C. (title): 2.5 min) was 25 ppm, the “Leaching of active ingredients (in ppm)” value (exhaust 80° C., 1% o.w.f, 60 min, curing dwell time at 190° C. (title): 3.0 min) was 35 ppm and the “Leaching of active ingredients (in ppm)” value (exhaust 80° C., 60 min, dosage 1% o.w.f (test up to 5% o.w.f)) was 2 ppm. The “Leaching of active ingredients (in ppm)” value (exhaust 80° C., 60 min, dosage 2% o.w.f) was 17 ppm, the “Leaching of active ingredients (in ppm)” value (exhaust 80° C., 60 min, dosage 3% o.w.f) was 41 ppm and the “Leaching of active ingredients (in ppm)” value (exhaust 80° C., 60 min, dosage 4% o.w.f) was 42 ppm. For the same substance, the “Leaching of active ingredients (in ppm)” value (exhaust 80° C., 60 min, dosage 5% o.w.f) was 72 ppm, the “Leaching of active ingredients (in ppm)” value (exhaust 80 ° C., solution dosage 1% o.w.f, process time 10 min) was 37 ppm and the “Leaching of active ingredients (in ppm)” value (exhaust 80 ° C., solution dosage 1% o.w.f, process time 20 min) was 25 ppm. The “Leaching of active ingredients (in ppm)” value (exhaust 80 ° C., solution dosage 1% o.w.f, process time 30 min) was 21 ppm, the “Leaching of active ingredients (in ppm)” value (exhaust 80 ° C., solution dosage 1% o.w.f, process time 40 min) was 16 ppm and the “Leaching of active ingredients (in ppm)” value (exhaust 80 ° C., solution dosage 1% o.w.f, process time 50 min) was 12 ppm. The “Leaching of active ingredients (in ppm)” value (exhaust 80 ° C., solution dosage 1% o.w.f, process time 55 min) was 5 ppm, the “Leaching of active ingredients (in ppm)” value (exhaust 80 ° C., solution dosage 1% o.w.f, process time 60 min) was 3 ppm and the “Leaching of active ingredients (in ppm)” value (exhaust 80 ° C., solution dosage 1% o.w.f, process time 70 min) was 2 ppm. For the same substance, the “Leaching of active ingredients (in ppm)” value (exhaust 80 ° C., solution dosage 1% o.w.f, process time 80 min) was 5 ppm, the “Leaching of active ingredients (in ppm)” value (exhaust 80 ° C., solution dosage 1% o.w.f, process time 90 min) was 8 ppm and the “limit on the quantity of the agent that can be adhered to the textile in a non-leaching or substantially non-leaching manner” value (from Experimental examples I.1 and I.4) was “about 0.2 % o.w.f”. For the same substance, the “Leaching of active ingredient (in ppm)” value (solution dosage 0.10% o.w.f, exhaust temperature 60° C., process time 60 min) was 0 ppm, the “Leaching of active ingredient (in ppm)” value (solution dosage 0.10% o.w.f, exhaust temperature 65° C., process time 60 min) was 0 ppm and the “Leaching of active ingredient (in ppm)” value (solution dosage 0.10% o.w.f, exhaust temperature 70° C., process time 60 min) was 0 ppm. For the same substance, the “Leaching of active ingredient (in ppm)” value (solution dosage 0.10% o.w.f, exhaust temperature 75° C., process time 60 min) was 0 ppm, the “Leaching of active ingredient (in ppm)” value (solution dosage 0.10% o.w.f, exhaust temperature 80° C., process time 60 min) was 0 ppm and the “Leaching of active ingredient (in ppm)” value (solution dosage 0.10% o.w.f, exhaust temperature 85° C., process time 60 min) was 1 ppm. The “Leaching of active ingredient (in ppm)” value (solution dosage 0.10% o.w.f, exhaust temperature 90° C., process time 60 min) was 2 ppm, the “Leaching of active ingredient (in ppm)” value (solution dosage 0.10% o.w.f, exhaust temperature 95° C., process time 60 min) was 2 ppm and the “Leaching of active ingredient (in ppm)” value (solution dosage 0.20% o.w.f, exhaust temperature 60° C., process time 60 min) was 0 ppm. For the same substance, the “Leaching of active ingredient (in ppm)” value (solution dosage 0.20% o.w.f, exhaust temperature 65° C., process time 60 min) was 0 ppm, the “Leaching of active ingredient (in ppm)” value (solution dosage 0.20% o.w.f, exhaust temperature 70° C., process time 60 min) was 0 ppm and the “Leaching of active ingredient (in ppm)” value (solution dosage 0.20% o.w.f, exhaust temperature 75° C., process time 60 min) was 0 ppm. For the same substance, the “Leaching of active ingredient (in ppm)” value (solution dosage 0.20% o.w.f, exhaust temperature 80° C., process time 60 min) was 0 ppm, the “Leaching of active ingredient (in ppm)” value (solution dosage 0.20% o.w.f, exhaust temperature 85° C., process time 60 min) was 2 ppm and the “Leaching of active ingredient (in ppm)” value (solution dosage 0.20% o.w.f, exhaust temperature 90° C., process time 60 min) was 3 ppm. The “Leaching of active ingredient (in ppm)” value (solution dosage 0.20% o.w.f, exhaust temperature 95° C., process time 60 min) was 4 ppm, the “Leaching of active ingredient (in ppm)” value (solution dosage 0.50% o.w.f, exhaust temperature 60° C., process time 60 min) was 1 ppm and the “Leaching of active ingredient (in ppm)” value (solution dosage 0.50% o.w.f, exhaust temperature 65° C., process time 60 min) was 1 ppm. The “Leaching of active ingredient (in ppm)” value (solution dosage 0.50% o.w.f, exhaust temperature 70° C., process time 60 min) was 1 ppm, the “Leaching of active ingredient (in ppm)” value (solution dosage 0.50% o.w.f, exhaust temperature 75° C., process time 60 min) was 1 ppm and the “Leaching of active ingredient (in ppm)” value (solution dosage 0.50% o.w.f, exhaust temperature 80° C., process time 60 min) was 1 ppm. The “Leaching of active ingredient (in ppm)” value (solution dosage 0.50% o.w.f, exhaust temperature 85° C., process time 60 min) was 4 ppm, the “Leaching of active ingredient (in ppm)” value (solution dosage 0.50% o.w.f, exhaust temperature 90° C., process time 60 min) was 5 ppm and the “Leaching of active ingredient (in ppm)” value (solution dosage 0.50% o.w.f, exhaust temperature 95° C., process time 60 min) was 7 ppm. The “Leaching of active ingredient (in ppm)” value (solution dosage 0.80% o.w.f, exhaust temperature 60° C., process time 60 min) was 2 ppm, the “Leaching of active ingredient (in ppm)” value (solution dosage 0.80% o.w.f, exhaust temperature 65° C., process time 60 min) was 2 ppm and the “Leaching of active ingredient (in ppm)” value (solution dosage 0.80% o.w.f, exhaust temperature 70° C., process time 60 min) was 2 ppm. For the same substance, the “Leaching of active ingredient (in ppm)” value (solution dosage 0.80% o.w.f, exhaust temperature 75° C., process time 60 min) was 3 ppm, the “Leaching of active ingredient (in ppm)” value (solution dosage 0.80% o.w.f, exhaust temperature 80° C., process time 60 min) was 1 ppm and the “Leaching of active ingredient (in ppm)” value (solution dosage 0.80% o.w.f, exhaust temperature 85° C., process time 60 min) was 7 ppm. The “Leaching of active ingredient (in ppm)” value (solution dosage 0.80% o.w.f, exhaust temperature 90° C., process time 60 min) was 8 ppm, the “Leaching of active ingredient (in ppm)” value (solution dosage 0.80% o.w.f, exhaust temperature 95° C., process time 60 min) was 9 ppm and the “Leaching of active ingredient (in ppm)” value (solution dosage 1.00% o.w.f, exhaust temperature 60° C., process time 60 min) was 6 ppm. The “Leaching of active ingredient (in ppm)” value (solution dosage 1.00% o.w.f, exhaust temperature 65° C., process time 60 min) was 6 ppm, the “Leaching of active ingredient (in ppm)” value (solution dosage 1.00% o.w.f, exhaust temperature 70° C., process time 60 min) was 4 ppm and the “Leaching of active ingredient (in ppm)” value (solution dosage 1.00% o.w.f, exhaust temperature 75° C., process time 60 min) was 3 ppm. The “Leaching of active ingredient (in ppm)” value (solution dosage 1.00% o.w.f, exhaust temperature 80° C., process time 60 min) was 1.5 ppm, the “Leaching of active ingredient (in ppm)” value (solution dosage 1.00% o.w.f, exhaust temperature 85° C., process time 60 min) was 9 ppm and the “Leaching of active ingredient (in ppm)” value (solution dosage 1.00% o.w.f, exhaust temperature 90° C., process time 60 min) was 11 ppm. For the same substance, the “Leaching of active ingredient (in ppm)” value (solution dosage 1.00% o.w.f, exhaust temperature 95° C., process time 60 min) was 12 ppm.
